The values that follow come from patent US11590116B2 (THERAVANCE BIOPHARMA R&D IP, LLC, priority 2019, dated 2023).

Assay [1] addresses T1, recombinant human ALK5 (TGF-βR1) protein (Homo sapiens, UniProt P36897).
T1 construct: purchased Life Technologies PR9075A
T1 sequence (P36897 34-503): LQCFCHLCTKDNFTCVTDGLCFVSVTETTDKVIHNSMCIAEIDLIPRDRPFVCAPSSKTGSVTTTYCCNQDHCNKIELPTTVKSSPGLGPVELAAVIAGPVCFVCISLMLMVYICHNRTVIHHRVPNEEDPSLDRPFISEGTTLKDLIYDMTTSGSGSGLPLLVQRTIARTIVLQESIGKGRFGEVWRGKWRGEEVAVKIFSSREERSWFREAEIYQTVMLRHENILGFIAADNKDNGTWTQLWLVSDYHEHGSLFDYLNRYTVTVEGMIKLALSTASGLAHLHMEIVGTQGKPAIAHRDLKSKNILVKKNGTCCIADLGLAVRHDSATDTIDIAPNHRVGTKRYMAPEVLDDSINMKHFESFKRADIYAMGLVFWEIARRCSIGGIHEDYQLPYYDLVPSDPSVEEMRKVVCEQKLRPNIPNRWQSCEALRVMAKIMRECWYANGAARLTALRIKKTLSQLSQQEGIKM
Description: Biochemical ALK5 (TGF-βR1) assay to measure pKi (LANCE Ultra ULight kinase assay). Particulars: apparent pKi from pIC50 by Cheng-Prusoff, read-out: ALK5 pKi (converted). The method, boiled down:
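Compounds (10 μM to 25 pM) were preincubated 60 min at room temperature with enzyme, then reactions were started with ATP (125 μM stock, 5× final) and run 60 min at 37 °C. EDTA-containing Eu-anti-phospho-Topo IIα (Thr1342) antibody stopped the reaction; TR-FRET read at 665 nm. pIC50 from 4-parameter fit, converted to pKi via Cheng-Prusoff.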

Assay [2] concerns TGF-β-stimulated SMAD3 phosphorylation in BEAS-2B cells. Kind of assay: Cellular ALK5 potency assay, inhibition of TGF-β stimulated pSMAD3 formation in BEAS-2B cells. Particulars: Homo sapiens; inhibition of TGF-β stimulated pSMAD3 formation, BEAS-2B cells; read-out: BEAS2B pIC50 (converted). It counts as cell-based. In outline:
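BEAS-2B human lung epithelial cells, seeded overnight, were pre-treated with compound in HBSS/25 mM HEPES/1% BSA for 1 h at 37 °C, then stimulated with TGF-β (final 10 ng/mL) for 30 min. Lysates were assayed for pSMAD3 by AlphaLISA; pIC50 came from dose-dependent signal change versus TGF-β-stimulated untreated cells.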

Structures are written as SMILES.

For the compound `Cc1cccc(-c2[nH]cnc2-c2ccc3ncc(-c4cc(C(=O)OCCN5CCNCC5)cs4)cc3c2)n1` [Compound 1141, 2-piperazin-1-ylethyl 5-[6-[5-(6-methyl-2-pyridyl)-1H-imidazol-4-yl]-3-quinolyl]thiophene-3-carboxylate], in assay [1], the Ki is 0.0398 to 0.316 nM. The IC50 in assay [2] was 25.1 to 158 nM.

`Cc1cccc(-c2[nH]cnc2-c2ccc3ncc(-c4cnc(C(=O)O[C@@H]5CCNC5)nc4)cc3c2)n1` [Compound 1059, [(3R)-pyrrolidin-3-yl] 5-[6-[5-(6-methyl-2-pyridyl)-1H-imidazol-4-yl]-3-quinolyl]pyrimidine-2-carboxylate]: the Ki in assay [1] is 0.0398 to 0.316 nM. Moreover, the IC50 in assay [2] is 200 to 1260 nM.

As for `Cc1cccc(-c2[nH]nnc2-c2ccc3ncc(-c4c[nH]nc4C(F)(F)F)cc3n2)n1` [Compound 521, 2-[5-(6-methyl-2-pyridyl)-1H-triazol-4-yl]-7-[3-(trifluoromethyl)-1H-pyrazol-4-yl]-1,5-naphthyridine], the Ki in assay [1] is 0.398 to 3.16 nM. In assay [2], the IC50 is 25.1 to 158 nM.

Turning to `CNCCn1cc(-c2cnc3ccc(-c4nc[nH]c4-c4ccc(F)c(C)n4)cc3c2)cn1` [Compound 401, 2-[4-[6-[5-(5-fluoro-6-methyl-2-pyridyl)-1H-imidazol-4-yl]-3-quinolyl]pyrazol-1-yl]-N-methyl-ethanamine], in assay [1], the Ki is less than 0.0316 nM. In assay [2], the IC50 was 25.1 to 158 nM.

For the compound `Cc1cccc(-c2[nH]c(CNc3ccccc3F)nc2-c2ccc3ncc(N4CCC(N(C)C)C4)cc3c2)n1` (racemic) [Compound 652, rac-(3S)-1-[6-[2-[(2-fluoroanilino)methyl]-5-(6-methyl-2-pyridyl)-1H-imidazol-4-yl]-3-quinolyl]-N,N-dimethyl-pyrrolidin-3-amine], the Ki in assay [1] is 0.0398 to 0.316 nM. Further, the IC50 in assay [2] is 200 to 1260 nM.

`Cc1cccc(-c2c(-c3ccc4ncc(NCCN5CCN(C(C)C)CC5)cc4c3)nnn2Cc2ccccc2)n1` [Compound 351, 6-[1-benzyl-5-(6-methyl-2-pyridyl)triazol-4-yl]-N-[2-(4-isopropylpiperazin-1-yl)ethyl]quinolin-3-amine]: in assay [1], the Ki was 3.98 to 31.6 nM. For the same compound, the IC50 in assay [2] is 200 to 1260 nM.

Regarding `Cc1cccc(-c2n[nH]cc2-c2ccc3ncc(Nc4ccc(N5CCNCC5)cn4)cc3c2)n1` [Compound 121, 6-[3-(6-methyl-2-pyridyl)-1H-pyrazol-4-yl]-N-(5-piperazin-1-yl-2-pyridyl)quinolin-3-amine], the Ki in assay [1] was less than 0.0316 nM. The IC50 in assay [2] is 25.1 to 158 nM.

Consider `Cc1cccc(-c2[nH]cnc2-c2ccc3ncc(-c4csc(C(=O)O[C@@H]5CCNC5)n4)cc3c2)n1` [Compound 1104, [(3R)-pyrrolidin-3-yl] 4-[6-[5-(6-methyl-2-pyridyl)-1H-imidazol-4-yl]-3-quinolyl]thiazole-2-carboxylate], for which, in assay [1], the Ki was 0.0398 to 0.316 nM. Also, the IC50 in assay [2] is 25.1 to 158 nM.

In the case of `Cc1cccc(-c2nc3ccccn3c2-c2ccc3ncc(Br)cc3n2)n1` [Compound 657, 7-bromo-2-[2-(6-methyl-2-pyridyl)imidazo[1,2-a]pyridin-3-yl]-1,5-naphthyridine], in assay [1], the Ki was 0.0398 to 0.316 nM. The IC50 in assay [2] was 25.1 to 158 nM.

For the compound `Cc1cccc(-c2n[nH]cc2-c2ccc3ncc(N4CCN[C@@H](C(=O)N(C)C)C4)cc3n2)n1` [Compound 204, (2R)-N,N-dimethyl-4-[6-[3-(6-methyl-2-pyridyl)-1H-pyrazol-4-yl]-1,5-naphthyridin-3-yl]piperazine-2-carboxamide], the Ki in assay [1] is 0.0398 to 0.316 nM. Moreover, the IC50 in assay [2] is 25.1 to 158 nM.

On to `Cc1cccc(-c2[nH]cnc2-c2ccc3ncc(-c4cnc5c(c4)CCC5N)cc3c2)n1` (stereo not drawn) [Compound 734, 3-[6-[5-(6-methyl-2-pyridyl)-1H-imidazol-4-yl]-3-quinolyl]-6,7-dihydro-5H-cyclopenta[b]pyridin-7-amine], for which the Ki in assay [1] was 0.0398 to 0.316 nM. Also, the IC50 in assay [2] was 25.1 to 158 nM.

Regarding `Cc1cccc(-c2nnn(C)c2-c2ccc3ncc(N4CCCNCC4)cc3c2)n1` [Compound 567, 3-(1,4-diazepan-1-yl)-6-[3-methyl-5-(6-methyl-2-pyridyl)triazol-4-yl]quinoline], the Ki in assay [1] is 0.398 to 3.16 nM. Besides, the IC50 in assay [2] was 25.1 to 158 nM.

For `Cc1cccc(-c2nnn(Cc3ccccc3)c2-c2ccc3ncc(N4CCC(N(C)C)C4)cc3c2)n1` (stereo not drawn) [Compound 191, 1-[6-[3-benzyl-5-(6-methyl-2-pyridyl)triazol-4-yl]-3-quinolyl]-N,N-dimethyl-pyrrolidin-3-amine], the Ki in assay [1] was 0.0398 to 0.316 nM. Besides, the IC50 in assay [2] is 25.1 to 158 nM.

Take `CC(C)N1CCN(CCNc2cnc3ccc(-c4c[nH]nc4-c4cccc(C(F)(F)F)n4)nc3c2)CC1` [Compound 201, N-(2-(4-isopropylpiperazin-1-yl)ethyl)-6-(3-(6-(trifluoromethyl)pyridin-2-yl)-1H-pyrazol-4-yl)-1,5-naphthyridin-3-amine]: the Ki in assay [1] was 0.0398 to 0.316 nM. Besides, the IC50 in assay [2] is 25.1 to 158 nM.

Take `COC(=O)[C@@H]1CCN(CCNc2cnc3ccc(-c4nc[nH]c4-c4cccc(C)n4)cc3c2)C1` [Compound 729, methyl (3R)-1-[2-[[6-[5-(6-methyl-2-pyridyl)-1H-imidazol-4-yl]-3-quinolyl]amino]ethyl]pyrrolidine-3-carboxylate]: the Ki in assay [1] is 0.0398 to 0.316 nM. In assay [2], the IC50 was 25.1 to 158 nM.

For the compound `Cc1cccc(-c2[nH]cnc2-c2ccc3ncc(N4CCN(C)C(CC(=O)O)C4)cc3c2)n1` (stereo not drawn) [Compound 688, 2-[1-methyl-4-[6-[5-(6-methyl-2-pyridyl)-1H-imidazol-4-yl]-3-quinolyl]piperazin-2-yl]acetic acid], the Ki in assay [1] was 0.0398 to 0.316 nM. The IC50 in assay [2] was 1580 to 10000 nM.

Regarding `Cc1cccc(-c2n[nH]cc2-c2ccc3ncc(-c4cccnc4O)cc3n2)n1` [Compound 585, 3-[6-[3-(6-methyl-2-pyridyl)-1H-pyrazol-4-yl]-1,5-naphthyridin-3-yl]pyridin-2-ol], the Ki in assay [1] was less than 0.0316 nM. Also, in assay [2], the IC50 is 25.1 to 158 nM.

With `Cc1cccc(-c2n[nH]cc2-c2ccc3ncc(-c4cnn(C5CNC5)c4)cc3n2)n1` [Compound 386, 7-[1-(azetidin-3-yl)pyrazol-4-yl]-2-[3-(6-methyl-2-pyridyl)-1H-pyrazol-4-yl]-1,5-naphthyridine], the Ki in assay [1] is less than 0.0316 nM. Moreover, in assay [2], the IC50 is 25.1 to 158 nM.

Take `Cc1cccc(-c2[nH]cnc2-c2ccc3ncc(-c4nc(C(=O)OCCN5CCC[C@H](N)C5)cs4)cc3c2)n1` [Compound 1172, 2-[(3S)-3-amino-1-piperidyl]ethyl 2-[6-[5-(6-methyl-2-pyridyl)-1H-imidazol-4-yl]-3-quinolyl]thiazole-4-carboxylate]: the Ki in assay [1] is less than 0.0316 nM. Besides, the IC50 in assay [2] was 200 to 1260 nM.

On to `CNCCn1ccc(-c2cnc3ccc(-c4nc[nH]c4-c4cccc(C)n4)nc3c2)n1` [Compound 152, N-methyl-2-[3-[6-[5-(6-methyl-2-pyridyl)-1H-imidazol-4-yl]-1,5-naphthyridin-3-yl]pyrazol-1-yl]ethanamine], for which, in assay [1], the Ki is less than 0.0316 nM. Besides, in assay [2], the IC50 is 25.1 to 158 nM.

Take `CNCc1ccnc2ccc(-c3c[nH]nc3-c3cccc(C)n3)cc12` [Compound 549, N-methyl-1-[6-[3-(6-methyl-2-pyridyl)-1H-pyrazol-4-yl]-4-quinolyl]methanamine]: in assay [1], the Ki is 0.398 to 3.16 nM. Besides, the IC50 in assay [2] was 25.1 to 158 nM.
